# Laboratory results reported in ChEMBL document CHEMBL3286103.
# Active and inactive are the calls of the source. The rule behind the calls is not given here.
# Target: T1, Vitamin D3 receptor A (Danio rerio) (UniProt Q9PTN2)
# T1 sequence (whole entry): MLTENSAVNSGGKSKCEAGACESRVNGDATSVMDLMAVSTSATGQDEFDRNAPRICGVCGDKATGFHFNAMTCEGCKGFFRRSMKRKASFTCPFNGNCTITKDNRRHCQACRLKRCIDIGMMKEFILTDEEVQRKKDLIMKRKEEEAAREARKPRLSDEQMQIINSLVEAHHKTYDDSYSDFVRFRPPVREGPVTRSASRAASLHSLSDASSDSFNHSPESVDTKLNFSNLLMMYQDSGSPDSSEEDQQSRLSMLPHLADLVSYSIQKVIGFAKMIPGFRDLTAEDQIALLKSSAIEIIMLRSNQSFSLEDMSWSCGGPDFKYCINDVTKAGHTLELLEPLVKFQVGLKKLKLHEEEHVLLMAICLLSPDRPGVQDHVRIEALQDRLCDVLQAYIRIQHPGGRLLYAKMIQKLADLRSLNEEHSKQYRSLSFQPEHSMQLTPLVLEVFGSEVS
# Experiment: Binding affinity to N-terminal His-tagged zebrafish VDR LBD (154 to 456) at 10 to 20-fold molar excess by ESI-MS analysis
structure (smiles),measurement,value
C[C@H](CCC(=O)O)[C@H]1CC[C@H]2[C@@H]3CC[C@@H]4C[C@H](O)CC[C@]4(C)[C@H]3CC[C@]12C,Activity,Active
